Data published in patent US12187713B2, “Immunomodulators, compositions and methods thereof” (Betta Pharmaceuticals Co., Ltd, priority 2019, dated 2025).
pIC50: −log10 of the molar value. Where a name gives a salt, the structure may show the parent alone.

Molecular target: PD-1/PD-L1 (Homo sapiens (Human), UniProt Q9NZQ7)
Test: PD-1/PD-L1 Binding Assay (Alphascreen)
Outline: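 PD-1/PD-L1 binding detected by anti-6×His acceptor and streptavidin donor beads after 120 min in the dark at 25 °C. Beforehand, the two proteins were incubated 15 min at 25 °C with inhibitor at 0.015–300 nM (1% DMSO). IC50 comes from a log concentration–response curve.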

PD-1/PD-L1, sequence (Q9NZQ7 19-238): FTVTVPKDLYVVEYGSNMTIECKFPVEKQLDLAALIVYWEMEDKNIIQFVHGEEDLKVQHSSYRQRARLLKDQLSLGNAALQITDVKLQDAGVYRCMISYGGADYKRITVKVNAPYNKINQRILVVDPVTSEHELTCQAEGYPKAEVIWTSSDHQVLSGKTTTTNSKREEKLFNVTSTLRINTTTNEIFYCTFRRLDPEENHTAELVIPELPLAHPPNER

Cc1c(-c2nc3cc(CN4CCC[C@H]4C(=O)O)c(OC(F)F)cc3o2)cccc1-c1cccc(-c2nc3cc(CN4CCC4)cc(C)c3o2)c1C [Example 94, ((2-(3′-(5-(azetidin-1-ylmethyl)-7-methylbenzo[d]oxazol-2-yl)-2,2′-dimethyl-[1,1′-biphenyl]-3-yl)-6-(difluoromethoxy)benzo[d]oxazol-5-yl)methyl)-L-proline]
pIC50 (numeric values): 8.72

Cc1c(-c2nc3c(o2)CCN(CCS(C)(=O)=O)C3)cccc1-c1cccc(-c2nc3cc(CN4CCC[C@H]4C(=O)O)c(OC(F)F)cc3o2)c1C [Example 185, ((6-(difluoromethoxy)-2-(2,2′-dimethyl-3′-(5-(2-(methylsulfonyl)ethyl)-4,5,6,7-tetrahydrooxazolo[4,5-c]pyridin-2-yl)-[1,1′-biphenyl]-3-yl)benzo[d]oxazol-5-yl)methyl)-L-proline]
pIC50 (range symbols): 8.30 to 10.00

Cc1c(-c2nc3cc(CN4CCC[C@H]4C(=O)O)c(OC(F)F)cc3o2)cccc1-c1cccc(-c2nc3cc(CN(C(C)CO)C(C)CO)cc(C#N)c3o2)c1C (stereo partly drawn) [Example 147, ((2-(3′-(5-((bis(1-hydroxypropan-2-yl)amino)methyl)-7-cyanobenzo[d]oxazol-2-yl)-2,2′-dimethyl-[1,1′-biphenyl]-3-yl)-6-(difluoromethoxy)benzo[d]oxazol-5-yl)methyl)-L-proline]
pIC50 (range symbols): 8.30 to 10.00

Cc1c(-c2nc3cc(CN4CCC[C@H]4C(=O)O)c(OC(F)F)cc3o2)cccc1-c1cccc(-c2ccc(CN3CCCC3)nc2F)c1C [Example 270, ((6-(difluoromethoxy)-2-(3′-(2-fluoro-6-(pyrrolidin-1-ylmethyl)pyridin-3-yl)-2,2′-dimethyl-[1,1′-biphenyl]-3-yl)benzo[d]oxazol-5-yl)methyl)-L-proline]
pIC50 (range symbols): 7.30 to 8.30

Cc1c(-c2nc3cc(CN4CCC4C)ccc3o2)cccc1-c1cccc(-c2nc3cc(CN4CCC[C@H]4C(=O)O)c(OC(F)F)cc3o2)c1C (stereo partly drawn) [Example 313, ((6-(difluoromethoxy)-2-(2,2′-dimethyl-3′-(5-((2-methylazetidin-1-yl)methyl)benzo[d]oxazol-2-yl)-[1,1′-biphenyl]-3-yl)benzo[d]oxazol-5-yl)methyl)-L-proline]
pIC50 (range symbols): 8.30 to 10.00

COc1cc(-c2cccc(-c3cccc(-c4nc5cc(CN6CCC[C@H]6C(=O)O)c(OC(F)F)cc5o4)c3C)c2C)cc(OC)c1CN1CCCC1 [Example 254, ((6-(difluoromethoxy)-2-(3″,5″-dimethoxy-2,2′-dimethyl-4″-(pyrrolidin-1-ylmethyl)-[1,1′:3′,1″- terphenyl]-3-yl)benzo[d]oxazol-5-yl)methyl)-L-proline hydrochloride]
pIC50 (numeric values): 7.80

Cc1c(-c2ccc(CNCCO)c(F)c2)cccc1-c1cccc(-c2nc3cc(CN4CCC[C@H]4C(=O)O)c(OC(F)F)cc3o2)c1C [Example 239, ((6-(difluoromethoxy)-2-(3″-fluoro-4″-(((2-hydroxyethyl)amino)methyl)-2,2′-dimethyl-[1,1′:3′,1″-terphenyl]-3-yl)benzo[d]oxazol-5-yl)methyl)-L-proline]
pIC50 (numeric values): 9.00

Cc1c(-c2cnc(N3CCN(C)CC3)nc2)cccc1-c1cccc(-c2nc3cc(CN4CCC[C@H]4C(=O)O)c(OC(F)F)cc3o2)c1C [Example 282, ((6-(difluoromethoxy)-2-(2,2′-dimethyl-3′-(2-(4-methylpiperazin-1-yl)pyrimidin-5-yl)-[1,1′-biphenyl]-3-yl)benzo[d]oxazol-5-yl)methyl)-L-proline]
pIC50 (range symbols): 7.30 to 8.30

CNCc1cc2nc(-c3cccc(-c4cccc(-c5nc6cc(CN7CCC[C@H]7C(=O)O)c(OC(F)F)cc6o5)c4C)c3C)oc2cc1OCc1cccc(S(C)(=O)=O)c1 [Example 124, ((6-(difluoromethoxy)-2-(2,2′-dimethyl-3′-(5-((methylamino)methyl)-6-((3-(methylsulfonyl)benzyl)oxy)benzo[d]oxazol-2-yl)-[1,1′-biphenyl]-3-yl)benzo[d]oxazol-5-yl)methyl)-L-proline]
pIC50 (range symbols): 8.30 to 10.00

COc1nc(-c2cccc(-c3cccc(-c4nc5cc(CN6CCC[C@H]6C(=O)O)c(OC(F)F)cc5o4)c3C)c2C)ccc1CN1CCC[C@H]1C [Example 279, ((6-(difluoromethoxy)-2-(3′-(6-methoxy-5-(((R)-2-methylpyrrolidin-1-yl)methyl)pyridin-2-yl)-2,2′-dimethyl-[1,1′-biphenyl]-3-yl)benzo[d]oxazol-5-yl)methyl)-L-proline]
pIC50 (range symbols): 8.30 to 10.00

Cc1c(-c2nc3ccc(CN4CC(C)(C)C4)cc3o2)cccc1-c1cccc(-c2nc3cc(CN4CCC[C@H]4C(=O)O)c(OC(F)F)cc3o2)c1C [Example 109, ((6-(difluoromethoxy)-2-(3′-(6-((3,3-dimethylazetidin-1-yl)methyl)benzo[d]oxazol-2-yl)-2,2′-dimethyl-[1,1′-biphenyl]-3-yl)benzo[d]oxazol-5-yl)methyl)-L-proline]
pIC50 (numeric values): 8.80

Cc1c(-c2nc3cc(CN4CCC[C@H]4C(=O)O)c(OC(F)F)cc3o2)cccc1-c1cccc(-c2nc3cc(CN4CC(C)C(C)C4)cc(C(F)(F)F)c3o2)c1C (stereo partly drawn) [Example 84, ((6-(difluoromethoxy)-2-(3′-(5-((3,4-dimethylpyrrolidin-1-yl)methyl)-7-(trifluoromethyl)benzo[d]oxazol-2-yl)-2,2′-dimethyl-[1,1′-biphenyl]-3-yl)benzo[d]oxazol-5-yl)methyl)-L-proline]
pIC50 (range symbols): 8.30 to 10.00

Cc1c(-c2nc3cc(CN4CCC[C@H]4C(=O)O)c(OC(F)F)cc3o2)cccc1-c1cccc(-c2nc3cc(CN4CC5(CNC(=O)C5)C4)cc(C#N)c3o2)c1C [Example 146, ((2-(3′-(7-cyano-5-((7-oxo-2,6-diazaspiro[3.4]octan-2-yl)methyl)benzo[d]oxazol-2-yl)-2,2′-dimethyl-[1,1′-biphenyl]-3-yl)-6-(difluoromethoxy)benzo[d]oxazol-5-yl)methyl)-L-proline]
pIC50 (range symbols): 8.30 to 10.00

Cc1c(-c2nc3cc(CN4CC5(C4)CS(=O)(=O)C5)c(OC(F)F)cc3o2)cccc1-c1cccc(-c2nc3cc(CN4CCC[C@H]4C(=O)O)c(OC(F)F)cc3o2)c1C [Example 54, ((6-(difluoromethoxy)-2-(3′-(6-(difluoromethoxy)-5-((2,2-dioxido-2-thia-6-azaspiro [3.3]heptan-6-yl)methyl)benzo[d]oxazol-2-yl)-2,2′-dimethyl-[1,1′-biphenyl]-3-yl)benzo[d]oxazol-5-yl)methyl)-L-proline]
pIC50 (numeric values): 8.20

Cc1c(-c2nc3cc(CN4CCC[C@H]4C(=O)O)c(OC(F)F)cc3o2)cccc1-c1cccc(-c2ccc(CNC[C@@H]3CCC(=O)N3)cc2)c1F [Example 215, ((6-(difluoromethoxy)-2-(2′-fluoro-2-methyl-4″- (((((S)-5-oxopyrrolidin-2-yl)methyl)amino)methyl)-[1,1′:3′,1″- terphenyl]-3-yl)benzo[d]oxazol-5-yl)methyl)-L-proline]
pIC50 (numeric values): 8.55

Cc1c(-c2nc3cc(CN4CCC[C@H]4C(=O)O)c(OC(F)F)cc3o2)cccc1-c1cccc(-c2nc3cc(CN4CC(C)(CN)C4)cc(C#N)c3o2)c1C [Example 161, ((2-(3′-(5-((3-(aminomethyl)-3-methylazetidin-1-yl)methyl)-7-cyanobenzo[d]oxazol-2-yl)-2,2′-dimethyl-[1,1′-biphenyl]-3-yl)-6-(difluoromethoxy)benzo[d]oxazol-5-yl)methyl)-L-proline]
pIC50 (range symbols): 8.30 to 10.00

Cc1c(-c2nc3cc(CN4CCC[C@H]4C(=O)O)c(OC(F)F)cc3o2)cccc1-c1cccc(-c2nc3cc(CN4CC(C)(C)C4)c(OC(F)F)cc3o2)c1C#N [Example 4, ((2-(2′-cyano-3′-(6-(difluoromethoxy)-5-((3,3-dimethylazetidin-1-yl)methyl)benzo[d]oxazol-2-yl)-2-methyl-[1,1′-biphenyl]-3-yl)-6-(difluoromethoxy)benzo[d]oxazol-5-yl)methyl)-L-proline]
pIC50 (numeric values): 8.85

Cc1c(-c2nc3cc(CN4CCC[C@H]4C(=O)O)c(OC(F)F)cc3o2)cccc1-c1cccc(-c2nc3cc(CN4CC(C)(C)C4)cnc3o2)c1C [Example 113, ((6-(difluoromethoxy)-2-(3′-(6-((3,3-dimethylazetidin-1-yl)methyl)oxazolo[5,4-b]pyridin-2-yl)-2,2′-dimethyl-[1,1′-biphenyl]-3-yl)benzo[d]oxazol-5-yl)methyl)-L-proline]
pIC50 (numeric values): 9.30

CCN(CCO)Cc1cc(C#N)c2oc(-c3cccc(-c4cccc(-c5nc6cc(CN7CCC[C@H]7C(=O)O)c(OC(F)F)cc6o5)c4C)c3C)nc2c1 [Example 141, ((2-(3′-(7-cyano-5-((ethyl(2-hydroxyethyl)amino)methyl)benzo[d]oxazol-2-yl)-2,2′-dimethyl-[1,1′-biphenyl]-3-yl)-6-(difluoromethoxy)benzo[d]oxazol-5-yl)methyl)-L-proline]
pIC50 (range symbols): 8.30 to 10.00

Cc1c(-c2nc3cc(CN4CCC[C@H]4C(=O)O)c(OC(F)F)cc3o2)cccc1-c1cccc(-c2nc3ccc(CN4CC(C)(C)C4)cc3o2)c1Cl [Example 110, ((2-(2′-chloro-3′-(6-((3,3-dimethylazetidin-1-yl)methyl)benzo[d]oxazol-2-yl)-2-methyl-[1,1′-biphenyl]-3-yl)-6-(difluoromethoxy)benzo[d]oxazol-5-yl)methyl)-L-proline]
pIC50 (range symbols): 8.30 to 10.00

Cc1c(-c2nc3cc(CN4CCC4CO)ccc3o2)cccc1-c1cccc(-c2nc3cc(CN4CCC[C@H]4C(=O)O)c(OC(F)F)cc3o2)c1C (stereo partly drawn) [Example 105, ((6-(difluoromethoxy)-2-(3′-(5-((2-(hydroxymethyl)azetidin-1-yl)methyl)benzo[d]oxazol-2-yl)-2,2′-dimethyl-[1,1′-biphenyl]-3-yl)benzo[d]oxazol-5-yl)methyl)-L-proline]
pIC50 (range symbols): 8.30 to 10.00

Cc1c(-c2nc3cc(CN)c(OC(F)F)cc3o2)cccc1-c1cccc(-c2nc3cc(CN4CCC[C@H]4C(=O)O)c(OC(F)F)cc3o2)c1C [Example 24, ((2-(3′-(5-(aminomethyl)-6-(difluoromethoxy)benzo[d]oxazol-2-yl)-2,2′-dimethyl-[1,1′-biphenyl]-3-yl)-6-(difluoromethoxy)benzo[d]oxazol-5-yl)methyl)-L-proline]
pIC50 (numeric values): 9.01
